biological target: T1, Human ATX protein (Homo sapiens, UniProt Q13822); assay: ATX biochemical FRET assay with FS-3 substrate; details: FRET substrate FS-3 2 μM, ATX 1.0 μg/mL, 30 minutes pre-incubation, 2 hours at room temperature; read-out: IC50
T1 construct: made in house
Text: ATX (Autotaxin) is a 125 KDa glycoprotein with lysophospholipase D (LPLD) activity that generates the bioactive lipid lysophosphatidic acid (LPA) from lysophosphatidylcholine (LPC). The ATX biochemical assay utilizes a FRET (fluorescence resonance energy transfer) technology platform. The fluorescence signal of FRET substrate FS-3 is quenched due to intra-molecular FRET of a fluorophore to a non-fluorescing quencher (Ferguson, C. G., et al., Org Lett. 2006 May 11; 8(10): 2023-2026, which is incorporated by reference in its entirety). ATX catalyzes the hydrolysis of the substrate which separates the dabsyl quencher from the fluorescein reporter, which becomes fluorescent. The reaction is monitored by a SpectraMax M5 (Molecular Devices, Sunnyvale, Calif.) with at excitation wavelength 485 nm and emission wavelength […].
Fatty acid free-BSA (Sigma A8806): 10 mg/mL in H2O, stored at 4° C.
2×ATX assay buffer: 100 mM Tris, 280 mM NaCl, 10 mM KCl, 2 mM CaCl2, 2 mM MgCl2, pH 7.4.
Human ATX protein: expressed and purified in house. Stored at −80° C.
Substrate FS-3 (Echelon, L-2000): 100 μg in 77.74 μL H2O (1 mM stock), stored at −20° C.
384-well flat bottom plates—Corning #3575.
Compound dilution—All compounds were provided at 10 mM in 100% DMSO. In the first well, 2 μL of 10 mM compound was added to 78 μL of DMSO (1:40 dilution). In subsequent wells 3-fold dilution (total 10 dilutions) were performed.
1×ATX assay buffer was made up with a final concentration of 1 mg/mL fatty acid free-BSA using 2×ATX assay buffer, 10 mg/ml fatty acid free-BSA and ddH2O.
ATX protein was diluted with 1×ATX assay buffer to a concentration of 1.32 μg/mL (1.32×). 38 μL was added per well to the assay plate. The final concentration of ATX in the reaction as 1.0 μg/mL.
2 μL per well of compounds was transferred to provide the desired concentration. The plate was centrifuged, then incubated at room temperature for 30 minutes on the shaker.
Then, 10 μL was added per well to the assay plate. […] The plate was centrifuged. The plate was kept shaking at room temperature for 2 hours. Because FS-3 substrate is light sensitive, plates were kept covered and protected from light.
Fluorescence was measured using SpectraMax M5 (excitation at 485 nm/emission at 538 nm, top read).

Structure (SMILES) | IC50 [nM]
C[C@H](N[C@@H]1C[C@H](C(=O)O)C1(C)C)c1ccc2ccc(O[C@H]3CC[C@@H](C(F)(F)F)CC3)c(C(F)(F)F)c2c1 [Example 121b, (1S,3R)-2,2-dimethyl-3-(((S)-1-(8-(trifluoromethyl)-7-((cis-4-(trifluoromethyl)cyclohexyl)oxy)naphthalen-2-yl)ethyl)amino)cyclobutanecarboxylic acid] | ≤ 100
O=C(O)[C@H]1CC[C@H](NCc2ccc3ccc(O[C@H]4CC[C@@H](C(F)(F)F)CC4)c(C(F)(F)F)c3c2)CC1 [Example 125, trans-4-(((8-(trifluoromethyl)-7-((cis-4-(trifluoromethyl)cyclohexyl)oxy)naphthalen-2-yl)methyl)amino)cyclohexanecarboxylic acid] | ≤ 500
C[C@H](N[C@H]1CC[C@@H](C(=O)O)CC1)c1ccc2ccc(O[C@H]3CC[C@@H](C(F)(F)F)CC3)c(C(F)(F)F)c2c1 [Example 136a, cis-4-(((S)-1-(8-(trifluoromethyl)-7-((cis-4-(trifluoromethyl)cyclohexyl)oxy)naphthalen-2-yl)ethyl)amino)cyclohexanecarboxylic acid] | ≤ 100
CC[C@H]1CC[C@@H](Oc2ccc3ccc(C(C)N[C@@H]4C[C@H](C(=O)O)C4(C)C)cc3c2C(F)(F)F)CC1 (stereo partly drawn) [Example 115, (1S,3R)-3-((1-(7-((cis-4-ethylcyclohexyl)oxy)-8-(trifluoromethyl)naphthalen-2-yl)ethyl)amino)-2,2-dimethylcyclobutanecarboxylic acid] | ≤ 100
CC1(C)[C@@H](NCc2ccc3ccc(O[C@H]4CC[C@@H](C)CC4)c(C#N)c3c2)C[C@H]1C(=O)O (relative stereo) [Example 99, Cis-3-(((8-cyano-7-((cis-4-methylcyclohexyl)oxy)naphthalen-2-yl)methyl)amino)-2,2-dimethylcyclobutanecarboxylic acid] | ≤ 250

Results, then the compound that gave them:

IC50 [nM] | Structure (SMILES)
≤ 100 | C[C@H](N[C@H]1C[C@@H](C(=O)O)C1(C)C)c1ccc2ccc(O[C@H]3CC[C@@H](C)CC3)c(C(F)(F)F)c2c1 [Example 114b, (1R,3S)-2,2-dimethyl-3-(((S)-1-(7-((cis-4-methylcyclohexyl)oxy)-8-(trifluoromethyl)naphthalen-2-yl)ethyl)amino)cyclobutanecarboxylic acid]
≤ 250 | CCC(c1ccc2ccc(O[C@H]3CC[C@@H](CC)CC3)c(C(F)(F)F)c2c1)N1CCC(C(=O)O)CC1 (stereo partly drawn) [Example 60, 1-(1-(7-((cis-4-ethylcyclohexyl)oxy)-8-(trifluoromethyl)naphthalen-2-yl)propyl)piperidine-4-carboxylic acid]
≤ 100 | CCC(NC1CC(C(=O)O)C1(C)C)c1ccc2ccc(O[C@H]3CC[C@@H](C)CC3)c(C(F)(F)F)c2c1 (stereo partly drawn) [Example 105, 2,2-dimethyl-3-((1-(7-((cis-4-methylcyclohexyl)oxy)-8-(trifluoromethyl)naphthalen-2-yl)propyl)amino)cyclobutanecarboxylic acid]
≤ 250 | CCC(c1ccc2ccc(O[C@H]3CC[C@@H](CC)CC3)c(C(F)(F)F)c2c1)N1CCC[C@H](CC(=O)O)C1 (stereo partly drawn) [Example 61, 2-((3R)-1-(1-(7-((cis-4-ethylcyclohexyl)oxy)-8-(trifluoromethyl)naphthalen-2-yl)propyl)piperidin-3-yl)acetic acid]
≤ 250 | CC(c1ccc2ccc(O[C@H]3CC[C@@H](C)CC3)c(C(F)(F)F)c2c1)N1CCC[C@H](CC(=O)O)C1 (stereo partly drawn) [Example 81, 2-((3R)-1-(1-(7-((cis-4-methylcyclohexyl)oxy)-8-(trifluoromethyl)naphthalen-2-yl)ethyl)piperidin-3-yl)acetic acid]
≤ 100 | CC(N[C@H]1C[C@@H](C(=O)O)C1(C)C)c1ccc2ccc(O[C@H]3CC[C@@H](C)CC3)c(C(F)(F)F)c2c1 (stereo partly drawn) [Example 113, (1R,3S)-2,2-dimethyl-3-((1-(7-((cis-4-methylcyclohexyl)oxy)-8-(trifluoromethyl)naphthalen-2-yl)ethyl)amino)cyclobutanecarboxylic acid]
≤ 500 | C[C@@H](N[C@H]1C[C@@H](C(=O)O)C1(C)C)c1ccc2ccc(O[C@H]3CC[C@@H](C)CC3)c(C(F)(F)F)c2c1 [Example 114d, (1R,3S)-2,2-dimethyl-3-(((R)-1-(7-((cis-4-methylcyclohexyl)oxy)-8-(trifluoromethyl)naphthalen-2-yl)ethyl)amino)cyclobutanecarboxylic acid]
≤ 500 | CC(C)[C@H]1CC[C@@H](Oc2ccc3ccc(CN4CCC(C(=O)O)CC4)cc3c2C(F)(F)F)CC1 [Example 106, 1-((7-((cis-4-isopropylcyclohexyl)oxy)-8-(trifluoromethyl)naphthalen-2-yl)methyl)piperidine-4-carboxylic acid]

same assay, conditions: IC50, FRET substrate FS-3 2 μM, ATX 1.0 μg/mL, 30 minutes pre-incubation, 2 hours at room temperature

Structure (SMILES) | IC50 [nM]
CC(C)[C@H]1CC[C@@H](Oc2ccc3ccc(CN4C5CCCC4CC(C(=O)O)C5)cc3c2C(F)(F)F)CC1 (stereo partly drawn) [Example 108, 9-((7-((cis-4-isopropylcyclohexyl)oxy)-8-(trifluoromethyl)naphthalen-2-yl)methyl)-9-azabicyclo[3.3.1]nonane-3-carboxylic acid] | ≤ 100
CC(c1cc2c(C(F)(F)F)c(O[C@H]3CC[C@@H](C(F)(F)F)CC3)ccc2cc1F)N1C2CCC1CC(C(=O)O)C2 (stereo partly drawn) [Example 140, 8-(1-(3-fluoro-8-(trifluoromethyl)-7-((cis-4-(trifluoromethyl)cyclohexyl)oxy)naphthalen-2-yl)ethyl)-8-azabicyclo[3.2.1]octane-3-carboxylic acid] | ≤ 100
O=C(O)C1CC2CCC(C1)N2C(=O)c1ccc2ccc(O[C@H]3CC[C@@H](C(F)(F)F)CC3)c(C(F)(F)F)c2c1 (relative stereo) [Example 23, 8-(8-(trifluoromethyl)-7-((cis-4-(trifluoromethyl)cyclohexyl)oxy)-2-naphthoyl)-8-azabicyclo[3.2.1]octane-3-carboxylic acid] | ≤ 250
C[C@H]1CC[C@@H](Oc2ccc3cc(F)c(CN4C5CCCC4CC(C(=O)O)C5)cc3c2C(F)(F)F)CC1 (stereo partly drawn) [Example 138, 9-((3-fluoro-7-((cis-4-methylcyclohexyl)oxy)-8-(trifluoromethyl)naphthalen-2-yl)methyl)-9-azabicyclo[3.3.1]nonane-3-carboxylic acid] | ≤ 250
CC[C@H]1CC[C@@H](Oc2ccc3ccc([C@H](C)N4C5CCC4CC(C(=O)O)C5)cc3c2C(F)(F)F)CC1 (stereo partly drawn) [Example 144a, 8-((S)-1-(7-((cis-4-ethylcyclohexyl)oxy)-8-(trifluoromethyl)naphthalen-2-yl)ethyl)-8-azabicyclo[3.2.1]octane-3-carboxylic acid] | ≤ 500
CC(c1ccc2ccc(O[C@H]3CC[C@@H](C)CC3)c(C(F)(F)F)c2c1)N1C2CCCC1CC(C(=O)O)C2 (stereo partly drawn) [Example 5, 9-{1-[7-(cis-4-methyl-cyclohexyloxy)-8-trifluoromethyl-naphthalen-2-yl]-ethyl}-9-aza-bicyclo[3.3.1]nonane-3-carboxylic acid] | ≤ 100
C[C@H]1CC[C@@H](Oc2ccc3ccc(CN4C5CCCC4CC(C(=O)O)C5)cc3c2Cl)CC1 (stereo partly drawn) [Example 15, 9-[8-Chloro-7-(4-methyl-cyclohexyloxy)-naphthalen-2-ylmethyl]-9-aza-bicyclo[3.3.1]nonane-3-carboxylic acid] | ≤ 100
CC[C@H]1CC[C@@H](Oc2ccc3ccc(C(C)N4C5CCCC4CC(C(=O)O)C5)cc3c2Cl)CC1 (stereo partly drawn) [Example 66, 9-(1-(8-chloro-7-((cis-4-ethylcyclohexyl)oxy)naphthalen-2-yl)ethyl)-9-azabicyclo[3.3.1]nonane-3-carboxylic acid] | ≤ 250

Source: US10017506B2, “ATX modulating agents” (BIOGEN MA INC., priority 2012, dated 2018)
